{
  "source": "patent US20060229358A1",
  "about": "“Pharmaceutical composition containing flavonoids” (Taipei Medical University, priority 2005, published 2006)",
  "key": {"[1]": {"molecular_target": "T1, high affinity rolipram binding sites (HARBS, PDE4H)", "T1 construct": "IC50 for displacement of [3H]-rolipram from HARBS; other: 300 μM, guinea pig, preliminary experimental data; other: guinea pig whole brain particulates; over 300 μM not available due", "assay": "Binding to particulate HARBS of whole brain, displacement of [3H]-rolipram (Assay II)", "design": "species or system guinea pig", "conditions": "for IC50: guinea pig whole brain particulates; for bound to HARBS of the whole brain cell particulates: 300 μM, guinea pig, preliminary experimental data", "method": "(§1) The binding experiments are carried on basis of the methods of Schneider et al. and Zhao et al. with a small modification. Under a protocol approved by the Animal Care and Use Committee of Taipei Medical University, five male guinea pigs (Hartley), weighing 500-600 g, were anesthetized. The whole brains taken therefrom were homogenized with in 10 volumes of cold medium (pH 6.5) containing 20 mM Bis-Tris, 2 mM benzamidine, 2 mM EDTA, 50 mM sodium chloride, 0.1 mM phenylmethanesulfonyl fluoride (PMSF), and 1 mM dithiothreitol. At 4° C., the homogenate was centrifuged at 170 g for 15 min for removing blood vessels and connective tissues, and the supernatant thereof was then re-centrifuged at 40,000 g for 30 min for separating the particulates from the cytosol of cells.\n(§2) After incubation, the reaction was stopped by transferring the reaction vessel to a bath of crashed ice. Then the reaction mixture was filtered through a punched glass fiber filter (Whatman GF/B) placed in a mini funnel, which was adopted to a 1.5 ml of Eppendorff's tube for collecting the filtrate in the mini centrifuge at 1000 rpm for 10 seconds. By the same way (centrifugation), it is further washed with 0.3 ml reaction buffer each for three times. The Whatman GF/B filter was mixed with 2 ml of cocktail and counted by the β-scintillation counter (Backman, Fullerton, Calif., USA) for counting the radioactivity thereof."}, "[2]": {"test_system": "T2, PDE4L (LARBS)", "T2 construct": "other: considered equal to the PDE4 IC50", "assay": "Binding to peripheral LARBS (PDE4L)", "conditions": "considered equal to the PDE4 IC50", "from_the_text": "[21]. […] In the brain, there are two binding sites for rolipram, which are high (HARBS) and low affinity rolipram binding sites (LARBS), while in the periphery of bronchi and lung there exist only LARBS. Generally, the anti-inflammatory and the bronchodilatory effects of rolipram are considered as its ability to bind with LARBS [21]."}, "[3]": {"test_system": "inflammatory cells in BALF of OVA-sensitized BALB/c mice", "assay": "Inflammatory cells in BALF of OVA-sensitized mice (Assay III)", "type": "in vivo, mouse", "conditions": "FIG. 3B", "method": "(§3) Sensitization, airway challenge, and allergen provocation was carried out as described by Kanehiro et al with some modifications. The female BALB/c mice from 8 to 12 week of age were obtained from National Laboratory Animal Center (Taiwan), and maintained on diets free of ovalbumin (OVA). Mice were sensitized by an intraperitoneal (i.p.) injection of 20 μg of OVA emulsified in 2.25 mg aluminum hydroxide gel in a total volume of 100 μl on days 0 and 14. For comparison, some mice were not sensitized, but received sham injection. All mice were challenged via the airway by OVA (1% in saline) for 30 min on days 28, 29, and 30 by ultrasonic nebulization. […] AHR was assessed on day 73 (48 h after 1% OVA provocation) for each group. […] The AHR was measured in unrestrained animals by barometric plethysmography using a whole-body plethysmograph (WBP) (Buxco, Troy, N.Y., USA). Mice were placed into the main chamber of the WBP and nebulized first with phosphate buffer solution (PBS), then with increasing doses (6.25-50 mg/ml) of methacholine (MCh) for 3 min for each nebulization, followed by readings of breathing parameters for 3 min after each nebulization with determination of enhanced pause (Penh) values. […] The number of inflammatory cells was counted using a hemacytometer (Hausser Sci., Horsham, Pa., USA). […]"}, "[4]": {"test_system": "cytokines (IL-2, IL-4, IL-5, TNF-α, IFN-γ) in BALF of OVA-sensitized BALB/c mice", "assay": "Cytokines in BALF of OVA-sensitized mice (Assay III)", "type": "in vivo, mouse", "conditions": "FIG. 3C", "method": "as §3"}, "[5]": {"test_system": "OVA-induced contractions of sensitized guinea pig trachea", "assay": "Cumulative OVA-induced contractions of isolated sensitized trachea in vitro (Assay IV)", "conditions": "FIG. 4", "from_the_text": "The guinea pigs were ready for use after day 25 [20]. Under a protocol approved by the Animal Care and Use Committee of Taipei Medical University, the tracheae of guinea pigs (Hartley) were sacrificed and removed therefrom. The tracheae were carefully trimmed off the excessive surrounding tissues and cut into six segments. Each segment consisted of three cartilage rings. All segments were cut open opposite the trachealis. […] The composition of the normal Krebs solution was (mM): […] The tissues were suspended in normal Krebs solution under an initial tension of 1.5 g and allowed to equilibrate for at least 1 h with washing at 15-min intervals. After the tissues were precontracted with KCl (60 mM) and washed with normal Krebs solution, OVA (0.1-100 μg/ml) was cumulatively added, and contractions were allowed to reach a steady state at each concentration. […] The tension of precontraction induced by KCl before experiment was set as 100%."}, "[6]": {"test_system": "high affinity rolipram binding sites (HARBS, PDE4H)", "assay": "Binding to particulate HARBS of whole brain, displacement of [3H]-rolipram (Assay II)", "design": "species or system guinea pig", "conditions": "HARBS 50% binding concentration over PDE4 IC50", "method": "as §1, §2"}, "[7]": {"conditions": "2 nM [3H]-rolipram, FIG. 2, read-out: IC50 for displacement of [3H]-rolipram from HARBS"}, "[8]": {"conditions": "over 300 μM not available due to solubility, read-out: concentration for having 50% of HARBS bound"}},
  "note": "Like-named read-outs stand apart in the source and are kept apart here.",
  "data": [
    {"smiles": "COc1ccc(C2CC(=O)c3c(O)cc(O)cc3O2)cc1O", "note": "(stereo not drawn) [Hesperetin]", "values": [
      {"measurement": "IC50", "setting": "[1]; [7]", "result": "> 300", "unit": "µM"},
      {"measurement": "bound to HARBS of the whole brain cell particulates", "setting": "[1]", "result": 17.5, "unit": "%"},
      {"measurement": "IC50", "setting": "[1]; [8]", "result": "> 300", "unit": "µM"},
      {"measurement": "concentration for binding to an half of the LARBS", "setting": "[2]", "result": 28.2, "unit": "µM"},
      {"measurement": "enhancement of eosinophils in BALF", "setting": "[3]; 3 μmol/kg i.p., compared with control group", "result": "significantly suppressed"},
      {"measurement": "enhancement of total inflammatory cells, macrophages, lymphocytes, neutrophils and eosinophils in BALF", "setting": "[3]; 10 and 30 μmol/kg i.p.", "result": "significantly suppressed"},
      {"measurement": "level of IL-5 in BALF", "setting": "[4]; 3 and 10 μmol/kg i.p.", "result": "not suppressed"},
      {"measurement": "enhancement of IL-2, IL-4, IL-5, TNF-α and IFN-γ levels in BALF", "setting": "[4]; 3~30 μmol/kg, i.p.", "result": "significantly suppressed"},
      {"measurement": "OVA (both 10 and 100 μg/ml)-induced contractions", "setting": "[5]; 30 μM preincubated 15 min", "result": "significantly antagonized"},
      {"measurement": "OVA (100 μg/ml)-induced contractions", "setting": "[5]; 3~30 μM preincubated 15 min, standardized by 60 mM KCl", "result": "antagonized"}
    ]},
    {"smiles": "COc1cc(O)c2c(=O)c(-c3ccc(O)cc3)coc2c1", "note": "[Prunetin]", "values": [
      {"measurement": "IC50", "setting": "[1]; [7]", "result": "> 300", "unit": "µM"},
      {"measurement": "bound to HARBS of the whole brain cell particulates", "setting": "[1]", "result": 24.2, "unit": "%"},
      {"measurement": "IC50", "setting": "[1]; [8]", "result": "> 300", "unit": "µM"},
      {"measurement": "PDE4H/PDE4L ratio", "setting": "[6]", "result": "greater than 5"},
      {"measurement": "concentration for binding to an half of the LARBS", "setting": "[2]", "result": 61.9, "unit": "µM"}
    ]}
  ]
}
